Measured values taken from patent US6545007B2, “Methods for inhibiting the transmission of HIV using topically applied substituted 6-benzyl-4-oxopyrimidines” (Idenix (Cayman) Limited, priority 2000, dated 2003).
Read-outs that look alike come from different tables or passages of the source.

Assays:
HIV-1 (IIIB strain) = format: cell-based; conditions: for EC50: anti-HIV-1 activity; for SI: selectivity index (CC50/EC50)
Protocol: Compounds. Compounds were solubilized in DMSO at 200 mM and then diluted into culture medium.
(§1) Cells and viruses. MT-4, C8166,H9/IIIB and CEM cells were grown at 37° C. in a 5% CO2 atmosphere in RPMI 1640 medium, supplemented with 10% fetal calf serum (FCS), 100 IU/mL penicillin and 100 μg/mL streptomycin. Cell cultures were checked periodically for the absence of mycoplasma contamination with a MycoTect Kit (Gibco). Human immunodeficiency virus type-I (HIV-1, IIIB strain) was obtained from supernatants of persistently infected H9/IIIB cells.
HIV Titration. Titration of HIV was performed in C8166 cells by the standard limiting dilution method (dilution 1:2, four replica wells per dilution) in 96-well plates. The infectious virus titre was determined by light microscope scoring of cytopathicity after 4 days of incubation and the virus titres were expressed as CCID50/mL.
(§2) Anti-HIV Assays. Activity of the compounds against HIV-1 and HIV-2 multiplication in acutely infected cells was based on the inhibition of virus-induced cytopathicity in MT-4 and C8166 cells, respectively. Briefly, 50 μL of culture medium containing 1×10^4 cells were added to each well of flat-bottom microtiter trays containing 50 μl of culture medium with or without various concentrations of the test compounds. Then 20 μL of an HIV suspension containing 100 CCID50 were added. After a 4-day incubation at 37° C., the number of viable cells was determined by the 3-(4,5-dimethylthiazol-[…])-2,5-diphenyltetrazolium bromide (MTT) method. Cytotoxicity of the compounds was evaluated in parallel with their antiviral activity. It was based on the viability of mock-infected cells, as monitored by the MTT method.

mock-infected MT-4 cells = assay: Cytotoxicity: viability of mock-infected cells by the MTT method; format: cell-based, human
Protocol: as §1, §2

[1] = acutely infected MT-4 cells, MTT

| Structure (SMILES) | EC50 (HIV-1 (IIIB strain); HIV-1-infected MT-4 cells) [µM] | EC50 (HIV-1 (IIIB strain); [1]) [µM] | CC50 (mock-infected MT-4 cells; MTT) [µM] | SI (HIV-1 (IIIB strain)) | CC50 (mock-infected MT-4 cells) [µM] |
| --- | --- | --- | --- | --- | --- |
| Cc1c(C(C)c2c(F)cccc2F)nc(SC2CCCC2)[nH]c1=O (single isomer, unassigned) [MC 1047+] |  | 0.002 | > 200 |  |  |
| Cc1c(C(C)c2c(F)cccc2F)nc(SC2CCCC2)[nH]c1=O (single isomer, unassigned) [MC 1047−] |  | 0.7 | > 200 |  |  |
| Cc1c(C(C)c2c(F)cccc2F)nc(NC2CCCC2)[nH]c1=O (centres unmarked) [MC1129, 2-Cyclopentylamino-6-{1-(2,6-difluorophenyl)ethyl}-3,4-dihydro-5-methylpyrimidin-4-(3H)-one] | 0.02 |  |  | 4,500 | 90 |
| CC1CCC(C)C(Oc2nc(Cc3ccccc3)cc(=O)[nH]2)C1 (centres unmarked) [MC 507] | 3.5 |  |  | 40 | 143 |
| CC1CC(C)CC(Oc2nc(Cc3ccccc3)cc(=O)[nH]2)C1 (centres unmarked) [MC 512] | 30 |  |  | >6.7 | > 200 |
| CCc1c(Cc2cccc3ccccc23)nc(SC(C)CC)[nH]c1=O (centres unmarked) [MC 804] | 5.3 |  |  | >34 | > 200 |
| CCC(C)Sc1nc(Cc2ccc(C)cc2)cc(=O)[nH]1 (centres unmarked) [MC 809] | 0.6 |  |  | 333.3 | 200 |
| CCC(C)Sc1nc(Cc2c(Cl)cccc2Cl)cc(=O)[nH]1 (centres unmarked) [MC 815] | 0.14 |  |  | >1,428 | > 200 |
| CCC(C)Sc1nc(Cc2ccccc2N)cc(=O)[nH]1 (centres unmarked) [MC 825] | 21.2 |  |  | >9 | > 200 |
| CCCCc1c(Cc2ccccc2)nc(SC(C)CC)[nH]c1=O (centres unmarked) [MC 834] | > 200 |  |  |  | > 200 |
| Cc1ccccc1Cc1cc(=O)[nH]c(SC2CCCC2)n1 [MC 842] | 3.4 |  |  | >59 | > 200 |
| O=c1cc(Cc2ccccc2)nc(SCOCc2ccccc2)[nH]1 [MC 843] | 45 |  |  | >4 | > 200 |
| CCC(C)Sc1nc(Cc2ccccc2C)c(C)c(=O)[nH]1 (centres unmarked) [MC 844] | 1.7 |  |  | >118 | > 200 |
| CCC(C)Sc1nc(Cc2ccc(C)cc2)c(C)c(=O)[nH]1 (centres unmarked) [MC 845] | 0.8 |  |  | 32 | 26 |
| CCC(C)Sc1nc(Cc2c(F)cccc2F)cc(=O)[nH]1 (centres unmarked) [MC 848] | 0.04 |  |  | 5,000 | 200 |
| CCC(C)Sc1nc(Cc2c(Cl)cccc2Cl)c(C)c(=O)[nH]1 (centres unmarked) [MC 850] | 0.05 |  |  | >4,000 | > 200 |
| C=CCc1c(Cc2ccccc2)nc(SC(C)CC)[nH]c1=O (centres unmarked) [MC 852] | 3 |  |  | >67 | > 200 |
| CCC(C)Sc1nc(Cc2ccc([N+](=O)[O-])cc2)cc(=O)[nH]1 (centres unmarked) [MC 863] | 1.5 |  |  | 101 | 151 |
| CC(C)CSc1nc(Cc2c(F)cccc2F)cc(=O)[nH]1 [MC 866] | 0.14 |  |  | 1,300 | 182 |
| O=c1cc(Cc2c(F)cccc2F)nc(SC2CCCC2)[nH]1 [MC 867] | 0.08 |  |  | >2,500 | > 200 |

| Structure (SMILES) | EC50 (HIV-1 (IIIB strain); HIV-1-infected MT-4 cells) [µM] | EC50 (HIV-1 (IIIB strain); [1]) [µM] | CC50 (mock-infected MT-4 cells; MTT) [µM] | SI (HIV-1 (IIIB strain)) | CC50 (mock-infected MT-4 cells) [µM] |
| --- | --- | --- | --- | --- | --- |
| CSc1nc(Cc2c(F)cccc2F)c(C)c(=O)[nH]1 [MC 869] | 0.19 |  |  | 1,053 | 200 |
| CC(C)Sc1nc(Cc2c(Cl)cccc2Cl)cc(=O)[nH]1 [MC 878] | 1.9 |  |  | >105 | > 200 |
| CCC(C)Sc1nc(Cc2ccccc2F)cc(=O)[nH]1 (centres unmarked) [MC 880] | 0.26 |  |  | 769 | 200 |
| Cc1c(Cc2c(F)cccc2F)nc(SC(C)C)[nH]c1=O [MC 881] | 0.05 |  |  | >4,000 | > 200 |
| CCCCSc1nc(Cc2c(Cl)cccc2Cl)cc(=O)[nH]1 [MC 886] | 0.44 |  |  | >454 | > 200 |
| O=c1cc(Cc2c(Cl)cccc2Cl)nc(SC2CCCC2)[nH]1 [MC 888] | 0.4 |  |  | >500 | > 200 |
| CCC(C)Sc1nc(Cc2ccc(F)cc2)cc(=O)[nH]1 (centres unmarked) [MC 889] | 8.7 |  |  | 23 | > 200 |
| CC(c1ccccc1)c1cc(=O)[nH]c(SC2CCCC2)n1 (centres unmarked) [MC 892] | 0.6 |  |  | 333 | 159 |
| CCC(C)Sc1nc(Cc2cccc([N+](=O)[O-])c2)cc(=O)[nH]1 (centres unmarked) [MC 897] | 0.4 |  |  | 392 | 157 |
| CC(c1ccccc1)c1cc(=O)[nH]c(SC2CCCCC2)n1 (centres unmarked) [MC 898] | 0.6 |  |  | 248 | 149 |
| CCC(c1ccccc1)c1cc(=O)[nH]c(SC(C)C)n1 (centres unmarked) [MC 899] | 0.8 |  |  | 250 | 200 |
| CCC(c1ccccc1)c1cc(=O)[nH]c(SC2CCCCC2)n1 (centres unmarked) [MC 903] | 1.3 |  |  | >154 | > 200 |
| CCC(C)Sc1nc(Cc2cccc(Cl)c2)c(C)c(=O)[nH]1 (centres unmarked) [MC 910] | 0.96 |  |  | >208 | > 200 |
| CCC(C)Sc1nc(Cc2ccc(Cl)cc2)c(C)c(=O)[nH]1 (centres unmarked) [MC 911] | 9.5 |  |  | 20 | > 200 |
| CSc1nc(Cc2c(Cl)cccc2Cl)c(C)c(=O)[nH]1 [MC 912] | 3.2 |  |  | >62 | > 200 |
| CCC(C)Sc1nc(Cc2ccccc2F)c(C)c(=O)[nH]1 (centres unmarked) [MC 913] | 0.41 |  |  | 341 | 140 |
| Cc1c(Cc2c(Cl)cccc2Cl)nc(SC(C)C)[nH]c1=O [MC 914] | 1.3 |  |  | >154 | > 200 |
| Cc1c(Cc2c(Cl)cccc2Cl)nc(SC2CCCC2)[nH]c1=O [MC 915] | 1.8 |  |  | >111 | > 200 |
| Cc1c(Cc2c(Cl)cccc2Cl)nc(SCC(C)C)[nH]c1=O [MC 916] | 1.2 |  |  | >166 | > 200 |

Continued, in another order:

| EC50 (HIV-1 (IIIB strain); HIV-1-infected MT-4 cells) [µM] | Structure (SMILES) | EC50 (HIV-1 (IIIB strain); [1]) [µM] | CC50 (mock-infected MT-4 cells; MTT) [µM] | SI (HIV-1 (IIIB strain)) | CC50 (mock-infected MT-4 cells) [µM] |
| --- | --- | --- | --- | --- | --- |
| 6.4 | CC1CCC(Oc2nc(Cc3ccccc3)cc(=O)[nH]2)CC1C (centres unmarked) [MC 508] |  |  | 9 | 58 |
| 3.5 | Cc1c(Cc2ccccc2)nc(OC2CC(C)CCC2C)[nH]c1=O (centres unmarked) [MC 531] |  |  | 39 | 138 |
| > 61 | CCC(C)Sc1nc(C(c2ccccc2)c2ccccc2)cc(=O)[nH]1 (centres unmarked) [MC 796] |  |  |  | 61 |
| 1 | CCc1c(Cc2ccccc2)nc(SC(C)CC)[nH]c1=O (centres unmarked) [MC 798] |  |  | >200 | > 200 |
| 1.8 | CCC(C)Sc1nc(Cc2ccccc2C)cc(=O)[nH]1 (centres unmarked) [MC 806] |  |  | >111 | > 200 |
| 0.25 | CCC(C)Sc1nc(Cc2ccccc2[N+](=O)[O-])cc(=O)[nH]1 (centres unmarked) [MC 817] |  |  | >800 | > 200 |
| 12 | CCCc1c(Cc2ccccc2)nc(SC(C)CC)[nH]c1=O (centres unmarked) [MC 856] |  |  | 16 | 190 |
| 5 | CCC(C)Sc1nc(Cc2ccc(Cl)cc2)cc(=O)[nH]1 (centres unmarked) [MC 859] |  |  | 24 | 120 |
| 0.2 | CC(C)Sc1nc(Cc2c(F)cccc2F)cc(=O)[nH]1 [MC 860] |  |  | >1,000 | > 200 |
| 32 | CCC(C)Sc1nc(Cc2ccccc2C(F)(F)F)cc(=O)[nH]1 (centres unmarked) [MC 868] |  |  | 6.2 | > 200 |
| 0.08 | O=c1cc(Cc2c(F)cccc2F)nc(SC2CCCCC2)[nH]1 [MC 870] |  |  | 2,500 | 200 |
| 0.81 | CSc1nc(Cc2c(F)cccc2F)cc(=O)[nH]1 [MC 871] |  |  | 247 | 200 |
| 0.18 | CCCCSc1nc(Cc2c(F)cccc2F)cc(=O)[nH]1 [MC 872] |  |  | 900 | 162 |
| 3.2 | CSc1nc(Cc2c(Cl)cccc2Cl)cc(=O)[nH]1 [MC 877] |  |  | >62 | > 200 |
| 0.7 | CCC(C)Sc1nc(Cc2cccc(F)c2)cc(=O)[nH]1 (centres unmarked) [MC 884] |  |  | >286 | > 200 |
| 0.45 | CC(C)CSc1nc(Cc2c(Cl)cccc2Cl)cc(=O)[nH]1 [MC 885] |  |  | >444 | > 200 |
| 0.9 | CC(C)Sc1nc(C(C)c2ccccc2)cc(=O)[nH]1 (centres unmarked) [MC 890] |  |  | >222 | > 200 |
| 0.6 | O=c1cc(Cc2c(Cl)cccc2Cl)nc(SC2CCCCC2)[nH]1 [MC 891] |  |  | >333 | > 200 |
| 1 | CCC(c1ccccc1)c1cc(=O)[nH]c(SC2CCCC2)n1 (centres unmarked) [MC 900] |  |  | >200 | > 200 |
| 0.08 | CCCCSc1nc(Cc2c(F)cccc2F)c(C)c(=O)[nH]1 [MC 905] |  |  | >2,500 | > 200 |
| 0.27 | CCC(C)Sc1nc(Cc2ccccc2Cl)c(C)c(=O)[nH]1 (centres unmarked) [MC 909] |  |  | >741 | > 200 |
